Key:
Type in all cases: cell-based, rat
cortical neurons = test: Glucose oxidase (GOX)-mediated cellular injury, Alamar blue cell viability
Procedure: To better assess the neuroprotective activity of curcumin, cell viability was determined for cortical neurons treated with 25 μM curcumin for 12 h followed by incubation for 2 h in the presence of glucose oxidase (100 mU/ml). This oxidant system generates hydrogen peroxide at a constant rate and is known to promote cellular injury in vitro^14. After treatment with glucose oxidase, cells were washed and exposed to complete medium containing 1% Alamar blue for 5 h according to manufacturers' instruction (Serotec, UK), in order to assess cell viability. After the 2 h incubation period, optical density in the medium of each well was measured using a plate reader (Molecular Devices; Crawley, UK). The assay is based on detection of metabolic activity of living cells using a redox indicator, which changes from oxidized (blue) to reduced (red) form. The intensity of the red color is proportional to the viability of cells, which is calculated as a difference in absorbance between 570 nm and 600 nm and expressed as a percentage of control. […] However, exposure of cells for 24 h to curcumin 25 μM reduced glucose oxidase-mediated damage and restored cell viability to 70% of control.
An inhibitor of HO-1 activity may be used to determine whether or not the effects of the polyphenolic compounds or analogs thereof are induced through the heme oxygenase signaling pathway. To understand the relevance of the induction of the stress protein HO-1 on the neuroprotective effects afforded by curcumin we treated cortical neuron exposed to β-amyloid with curcumin ([…]) alone or in the presence of tinprotoporphirine IX (SnPP) 40 μM, a specific inhibitor of HO-1 activity. The same treatment was performed in cortical neurons exposed to GOX-induced cellular damage.

hsp70 = hsp70 protein expression, Western blot, cortical neurons
Procedure: HO-1 and hsp70 protein levels were assessed by Western immunoblot technique using a polyclonal rabbit anti-HO-1 antibody (Stressgen; Victoria, Canada), and a polyclonal rabbit hsp70 antibody. Briefly, an equal amount of proteins (30 μg) for each sample was separated by SDS-polyacrylamide gel electrophoresis and transferred to nitrocellulose membranes, and the non-specific antibodies were blocked with 3% non-fat dried milk in PBS. Membranes were then probed with a polyclonal rabbit anti HO-1 antibody (Stressgen) (1:1000 dilution in Tris-buffered saline, pH 7,4) or with a monoclonal rabbit anti-Hsp72 antibody (Amersham Pharmacia Biotechnology) (1:1000 dilution in Tris-buffered saline, pH 7,4), that recognizes only the Hsp 70 inducible isoform. Blots were then visualized using an amplified alkaline phosphate kit from Sigma.

HO-1 mRNA = HO-1 mRNA expression, semi-quantitative RT-PCR, cortical neurons
Procedure: A semi-quantitative RT-PCR was performed to investigate the activity of curcumin on HO-1 mRNA expression, using specific HO-1 primers (FIG. 8) that generated a 123 bp product. […] The HO-2 primers generated a 331-bp PCR product. […] In order to test the effects of polyphenolic compounds, or analogs thereof, on heme oxygenase activity, curcumin and CAPE were added to cortical neurons for analysis. Heme oxygenase activities resulting from curcumin and CAPE treatment are shown in FIGS. 7A and 9A, respectively. Neuroprotective protein expression is observed in FIGS. 7B-C and 9B. The activity of curcumin on HO-1 mRNA expression may be measured to ensure that heme oxygenase activity correlates with mRNA expression (FIG. 8). Semi-quantitative reverse transcriptase-polymerase chain reaction using HO-1 and HO-2 (control) forward and reverse primers are as follows: […]

COc1cc(C=CC(=O)CC(=O)C=Cc2ccc(O)c(OC)c2)ccc1O [curcumin, 1,7-bis[4-Hydroxy-3-methoxyphenyl]-1,6-heptadiene-3,5-dione]
cell viability after glucose oxidase (cortical neurons; 25 μM, then glucose oxidase 100 mU/ml for 2 h): 70 % of control | cell viability, GOX-induced cellular damage (in words) (cortical neurons; curcumin alone): able to overcome the apoptotic effects of GOX alone | cell viability, GOX-induced cellular damage in the presence of SnPP (cortical neurons; curcumin plus SnPP 40 μM): only partially in combination with SnPP | hsp70 protein expression (hsp70): induced hsp70 protein expression | HO-1 mRNA expression (HO-1 mRNA): dose-dependent over-expression of HO-1 mRNA
